According to patent publication US20260242419A1, “A CYCLIC PEPTIDE FOR TRAPPING INTERLEUKIN-1 BETA” (Merck Sharp & Dohme LLC, priority 2023, published 2026):
Where two headings read alike, the source gives them in different places. Starred links: 1 amine or outer side, 2 acyl side, 3 side chain; linkers in the order of their positions; H or OH if unused. Non-standard residues stand in square brackets, D forms with d. Residues, ends and D or L forms follow the SMILES beside them. Phe(4-(5-CO2H-2-pyrimidyl)) = N[C@@H](Cc1ccc(-c2ncc(C(=O)O)cn2)cc1)C(=O)O; dPro(4R-(4-pyridylmethyl)) = O=C(O)[C@H]1C[C@@H](Cc2ccncc2)CN1; Ala(piperidin-4-yl) = O=C([C@H](CC1CCN([*:3])CC1)N[*:1])[*:2]; Trp(βS-Me,4-F) = C[C@@H](c1c[nH]c2cccc(F)c12)[C@H](N)C(=O)O; Bip(4'-COOH) = N[C@@H](Cc1ccc(-c2ccc(C(=O)O)cc2)cc1)C(=O)O; X18 = Cn1ccnc1-c1ccc(C[C@H]2CCN([*:1])[C@H]2C(=O)[*:2])cc1; Ala(1-bicyclo(1.1.1)pentyl) = N[C@@H](CC12CC(C1)C2)C(=O)O; dPro(4R-Bzl(4-F)) = O=C(O)[C@H]1C[C@@H](Cc2ccc(F)cc2)CN1; dPro(3S-(4-F-Bn)) = O=C(O)[C@@H]1NCC[C@@H]1Cc1ccc(F)cc1; X32 = Cn1cnc(-c2ccc(C[C@H](N[*:1])C(=O)[*:2])cc2)c1; X14 = O=C([C@H]1[C@@H](Cc2ccccc2)CCN1[*:1])[*:2]; X4 = O=C([C@H]1[C@@H](Cc2ccncc2)CCN1[*:1])[*:2]; Ala(piperazin-1-yl) = N[C@@H](CN1CCNCC1)C(=O)O; Ala(pyrimidin-5-yl) = N[C@@H](Cc1cncnc1)C(=O)O; Phe(4-COOH) = N[C@@H](Cc1ccc(C(=O)O)cc1)C(=O)O; Pro(cis-4-F) = O=C(O)[C@@H]1C[C@H](F)CN1; AEF = NCCOc1ccc(C[C@H](N)C(=O)O)cc1; d(αMeD) = C[C@@](N)(CC(=O)O)C(=O)O; 4Pal = N[C@@H](Cc1ccncc1)C(=O)O; d(αMeS) = C[C@@](N)(CO)C(=O)O; αMeK = C[C@](N)(CCCCN)C(=O)O; Dab = NCC[C@H](N)C(=O)O; Nva = CCC[C@H](N)C(=O)O; Aib = CC(C)(N)C(=O)O

Target: T1, IL-1β (Homo sapiens, UniProt P01584)
T1 construct: purchased BioLegend 579404
Assay: IL-6 assay in MRC5 cells: inhibition of IL-1β induced IL-6 secretion (AlphaLISA)
Type: cell-based
Conditions: inhibition of IL-1β induced IL-6 secretion in MRC5 cells, read-out: MRC5 IC50
Method in brief: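 Compound was pre-incubated 1 h at ambient temperature with recombinant human IL-1β at 2λ EC80 before adding human lung fibroblast MRC5 cells (3000/well) in EMEM with 0.025% BSA. After overnight culture at 37 °C, 5% CO2, secreted IL-6 in conditioned medium was measured by AlphaLISA; IC50 from 4-parameter logistic fits.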

[1] = compound pre-incubated 1 hour with recombinant human IL-1β

T1 sequence (P01584 117-269): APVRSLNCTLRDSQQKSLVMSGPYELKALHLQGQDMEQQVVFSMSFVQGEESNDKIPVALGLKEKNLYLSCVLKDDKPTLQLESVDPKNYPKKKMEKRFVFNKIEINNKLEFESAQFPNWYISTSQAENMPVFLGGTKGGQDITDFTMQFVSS

| SMILES | IC50 [nM] | IC50 [1] [nM] |
| --- | --- | --- |
| C[C@@H](c1c[nH]c2cccc(F)c12)[C@@H]1NC(=O)[C@@H]2C[C@H](F)CN2C(=O)CNC(=O)[C@H](Cc2ccc(C(=O)O)cc2)NC(=O)[C@H](Cc2ccncc2)NC(=O)[C@H](Cc2ccc(-c3ccc(C(=O)O)cc3)cc2)NC(=O)[C@H]2C[C@@H](Cc3ccc(F)cc3)CN2C(=O)CNC(=O)[C@H](CCN)NC(=O)[C@H](CCC(N)=O)NC(=O)[C@H](Cc2cncnc2)NC(=O)[C@](C)(CCCCN)NC(=O)[C@H](Cc2c[nH]c3ccccc23)NC(=O)[C@H](CCC(=O)O)NC(=O)C(C)(C)NC1=O [Example 67] (cyclo([4Pal][Phe(4-COOH)]G[Pro(cis-4-F)][Trp(βS-Me,4-F)][Aib]EW[αMeK][Ala(pyrimidin-5-yl)]Q[Dab]G[dPro(4R-Bzl(4-F))][Bip(4'-COOH)])) | 0.021 |  |
| C[C@@H](c1c[nH]c2cccc(F)c12)[C@@H]1NC(=O)[C@@H]2C[C@H](F)CN2C(=O)CNC(=O)[C@H](Cc2ccc(C(=O)O)cc2)NC(=O)[C@H](Cc2ccncc2)NC(=O)[C@H](Cc2ccc(-c3ccc(C(=O)O)cc3)cc2)NC(=O)[C@H]2C[C@@H](Cc3ccc(F)cc3)CN2C(=O)CNC(=O)[C@H](CCCNC(=N)N)NC(=O)[C@H](CCC(N)=O)NC(=O)[C@H](Cc2ccncc2)NC(=O)C(C)(C)NC(=O)[C@H](Cc2c[nH]c3ccccc23)NC(=O)[C@H](CCC(=O)O)NC(=O)C(C)(C)NC1=O [Example 76] (cyclo([Bip(4'-COOH)][4Pal][Phe(4-COOH)]G[Pro(cis-4-F)][Trp(βS-Me,4-F)][Aib]EW[Aib][4Pal]QRG[dPro(4R-Bzl(4-F))])) | 0.059 |  |
| CCC[C@@H]1NC(=O)[C@@](C)(CC(=O)O)NC(=O)[C@H](Cc2c[nH]c3ccccc23)NC(=O)[C@H](CO)NC(=O)C(C)(C)NC(=O)[C@H]([C@@H](C)c2c[nH]c3cccc(F)c23)NC(=O)[C@@H]2C[C@H](F)CN2C(=O)CNC(=O)[C@H](Cc2ccc(C(=O)O)cc2)NC(=O)[C@H](Cc2ccncc2)NC(=O)[C@H](Cc2ccc(-c3ccc(C(=O)O)cc3)cc2)NC(=O)[C@H]2[C@@H](Cc3ccncc3)CCN2C(=O)CNC(=O)[C@H](CCN)NC(=O)[C@H](CCC(N)=O)NC1=O [Example 231] (cyclo([Bip(4'-COOH)][4Pal][Phe(4-COOH)]G[Pro(cis-4-F)][Trp(βS-Me,4-F)][Aib]SW[d(αMeD)][Nva]Q[Dab]G[X4])) |  | 0.027 |
| C[C@@H](c1c[nH]c2cccc(F)c12)[C@@H]1NC(=O)[C@@H]2C[C@H](F)CN2C(=O)CNC(=O)[C@H](Cc2ccc(C(=O)O)cc2)NC(=O)[C@H](Cc2ccncc2)NC(=O)[C@H](Cc2ccc(-c3cn(C)cn3)cc2)NC(=O)[C@H]2[C@@H](Cc3ccc(F)cc3)CCN2C(=O)CNC(=O)[C@H](CCN)NC(=O)[C@H](CCC(N)=O)NC(=O)[C@H](Cc2cncnc2)NC(=O)[C@@](C)(CC(=O)O)NC(=O)[C@H](Cc2c[nH]c3ccccc23)NC(=O)[C@H](CO)NC(=O)C(C)(C)NC1=O [Example 279] (cyclo([X32][4Pal][Phe(4-COOH)]G[Pro(cis-4-F)][Trp(βS-Me,4-F)][Aib]SW[d(αMeD)][Ala(pyrimidin-5-yl)]Q[Dab]G[dPro(3S-(4-F-Bn))])) |  | 0.013 |
| C[C@@H](c1c[nH]c2cccc(F)c12)[C@@H]1NC(=O)[C@@H]2C[C@H](F)CN2C(=O)CNC(=O)[C@H](Cc2ccc(C(=O)O)cc2)NC(=O)[C@H](CC23CC(C2)C3)NC(=O)[C@H](Cc2ccc(-c3ccc(C(=O)O)cc3)cc2)NC(=O)[C@H]2C[C@@H](Cc3ccc(F)cc3)CN2C(=O)CNC(=O)[C@H](CCN)NC(=O)[C@H](CCC(N)=O)NC(=O)[C@H](CC2CCNCC2)NC(=O)[C@](C)(CCCCN)NC(=O)[C@H](Cc2c[nH]c3ccccc23)NC(=O)[C@H](CCC(=O)O)NC(=O)C(C)(C)NC1=O [Example 166] (cyclo([Bip(4'-COOH)][Ala(1-bicyclo(1.1.1)pentyl)][Phe(4-COOH)]G[Pro(cis-4-F)][Trp(βS-Me,4-F)][Aib]EW[αMeK][Ala(piperidin-4-yl)]Q[Dab]G[dPro(4R-Bzl(4-F))])) | 0.039 |  |
| C[C@@H](c1c[nH]c2cccc(F)c12)[C@@H]1NC(=O)[C@@H]2C[C@H](F)CN2C(=O)CNC(=O)[C@H](Cc2ccc(C(=O)O)cc2)NC(=O)[C@H](CC23CC(C2)C3)NC(=O)[C@H](Cc2ccc(-c3ncc(C(=O)O)cn3)cc2)NC(=O)[C@H]2C[C@@H](Cc3ccncc3)CN2C(=O)CNC(=O)[C@H](CCN)NC(=O)[C@H](CCC(N)=O)NC(=O)[C@H](Cc2ccncc2)NC(=O)C(C)(C)NC(=O)[C@H](Cc2c[nH]c3ccccc23)NC(=O)[C@H](CO)NC(=O)C(C)(C)NC1=O [Example 89] (cyclo([Phe(4-(5-CO2H-2-pyrimidyl))][Ala(1-bicyclo(1.1.1)pentyl)][Phe(4-COOH)]G[Pro(cis-4-F)][Trp(βS-Me,4-F)][Aib]SW[Aib][4Pal]Q[Dab]G[dPro(4R-(4-pyridylmethyl))])) | 0.045 |  |
| CC(=O)NCCOc1ccc(C[C@@H]2NC(=O)[C@H]3[C@@H](Cc4ccccc4)CCN3C(=O)CNC(=O)[C@H](CCN)NC(=O)[C@H](CCC(N)=O)NC(=O)[C@H](Cc3cncnc3)NC(=O)C(C)(C)NC(=O)[C@H](Cc3c[nH]c4ccccc34)NC(=O)[C@H](CCC(=O)O)NC(=O)C(C)(C)NC(=O)[C@H]([C@@H](C)c3c[nH]c4cccc(F)c34)NC(=O)[C@@H]3C[C@H](F)CN3C(=O)CNC(=O)[C@H](Cc3ccc(C(=O)O)cc3)NC(=O)[C@H](Cc3ccncc3)NC2=O)cc1 [Example 78] (cyclo([AEF](Ac)[4Pal][Phe(4-COOH)]G[Pro(cis-4-F)][Trp(βS-Me,4-F)][Aib]EW[Aib][Ala(pyrimidin-5-yl)]Q[Dab]G[X14])) | 0.036 |  |
| C[C@@H](c1c[nH]c2cccc(F)c12)[C@@H]1NC(=O)[C@@H]2C[C@H](F)CN2C(=O)CNC(=O)[C@H](Cc2ccc(C(=O)O)cc2)NC(=O)[C@H](Cc2ccncc2)NC(=O)[C@H](Cc2ccc(-c3ccc(C(=O)O)cc3)cc2)NC(=O)[C@H]2C[C@@H](Cc3ccc(F)cc3)CN2C(=O)CNC(=O)[C@H](CCN)NC(=O)[C@H](CCC(N)=O)NC(=O)[C@H](Cc2cncnc2)NC(=O)C(C)(C)NC(=O)[C@H](Cc2c[nH]c3ccccc23)NC(=O)[C@H](CCC(=O)O)NC(=O)[C@@](C)(CO)NC1=O [Example 19] (cyclo([Bip(4'-COOH)][4Pal][Phe(4-COOH)]G[Pro(cis-4-F)][Trp(βS-Me,4-F)][d(αMeS)]EW[Aib][Ala(pyrimidin-5-yl)]Q[Dab]G[dPro(4R-Bzl(4-F))])) | 0.021 |  |
| C[C@@H](c1c[nH]c2cccc(F)c12)[C@@H]1NC(=O)[C@@H]2C[C@H](F)CN2C(=O)CNC(=O)[C@H](Cc2ccc(C(=O)O)cc2)NC(=O)[C@H](CC23CC(C2)C3)NC(=O)[C@H](Cc2ccc(-c3ccc(C(=O)O)cc3)cc2)NC(=O)[C@H]2C[C@@H](Cc3ccc(F)cc3)CN2C(=O)CNC(=O)[C@H](CCN)NC(=O)[C@H](CCC(N)=O)NC(=O)[C@H](CN2CCNCC2)NC(=O)C(C)(C)NC(=O)[C@H](Cc2c[nH]c3ccccc23)NC(=O)[C@H](CO)NC(=O)C(C)(C)NC1=O [Example 168] (cyclo([Bip(4'-COOH)][Ala(1-bicyclo(1.1.1)pentyl)][Phe(4-COOH)]G[Pro(cis-4-F)][Trp(βS-Me,4-F)][Aib]SW[Aib][Ala(piperazin-1-yl)]Q[Dab]G[dPro(4R-Bzl(4-F))])) | 0.018 |  |
| CC(=O)NCCOc1ccc(C[C@@H]2NC(=O)[C@H]3C[C@@H](Cc4ccncc4)CN3C(=O)CNC(=O)[C@H](CCN)NC(=O)[C@H](CCC(N)=O)NC(=O)[C@H](Cc3ccc(O)cc3)NC(=O)C(C)(C)NC(=O)[C@H](Cc3c[nH]c4ccccc34)NC(=O)[C@H](CCC(=O)O)NC(=O)C(C)(C)NC(=O)[C@H]([C@@H](C)c3c[nH]c4cccc(F)c34)NC(=O)[C@@H]3C[C@H](F)CN3C(=O)CNC(=O)[C@H](Cc3ccc(C(=O)O)cc3)NC(=O)[C@H](Cc3ccncc3)NC2=O)cc1 [Example 310] (cyclo([AEF](Ac)[4Pal][Phe(4-COOH)]G[Pro(cis-4-F)][Trp(βS-Me,4-F)][Aib]EW[Aib]YQ[Dab]G[dPro(4R-(4-pyridylmethyl))])) | 0.017 |  |
| C[C@@H](c1c[nH]c2cccc(F)c12)[C@@H]1NC(=O)[C@@H]2C[C@H](F)CN2C(=O)CNC(=O)[C@H](Cc2ccc(C(=O)O)cc2)NC(=O)[C@H](Cc2ccncc2)NC(=O)[C@H](Cc2ccc(-c3ccc(C(=O)O)cc3)cc2)NC(=O)[C@H]2[C@@H](Cc3ccc(-c4nccn4C)cc3)CCN2C(=O)CNC(=O)[C@H](CCN)NC(=O)[C@H](CCC(N)=O)NC(=O)[C@H](Cc2cncnc2)NC(=O)C(C)(C)NC(=O)[C@H](Cc2c[nH]c3ccccc23)NC(=O)[C@H](CCC(=O)O)NC(=O)C(C)(C)NC1=O [Example 63] (cyclo([Bip(4'-COOH)][4Pal][Phe(4-COOH)]G[Pro(cis-4-F)][Trp(βS-Me,4-F)][Aib]EW[Aib][Ala(pyrimidin-5-yl)]Q[Dab]G[X18])) | 0.018 |  |
| C[C@@H](c1c[nH]c2cccc(F)c12)[C@@H]1NC(=O)[C@@H]2C[C@H](F)CN2C(=O)CNC(=O)[C@H](Cc2ccc(C(=O)O)cc2)NC(=O)[C@H](CC23CC(C2)C3)NC(=O)[C@H](Cc2ccc(-c3ccc(C(=O)O)cc3)cc2)NC(=O)[C@H]2C[C@@H](Cc3ccc(F)cc3)CN2C(=O)CNC(=O)[C@H](CCN)NC(=O)[C@H](CCC(N)=O)NC(=O)[C@H](Cc2cncnc2)NC(=O)[C@](C)(CCCCN)NC(=O)[C@H](Cc2c[nH]c3ccccc23)NC(=O)[C@H](CO)NC(=O)C(C)(C)NC1=O [Example 144] (cyclo([Bip(4'-COOH)][Ala(1-bicyclo(1.1.1)pentyl)][Phe(4-COOH)]G[Pro(cis-4-F)][Trp(βS-Me,4-F)][Aib]SW[αMeK][Ala(pyrimidin-5-yl)]Q[Dab]G[dPro(4R-Bzl(4-F))])) | 0.031 |  |
